The record followed here is paper PMC9655428, “N-Hydroxy-N-Propargylamide Derivatives of Ferulic Acid: Inhibitors of Cholinesterases and Monoamine Oxidases” (Molecules, 2022).

The structures appear in SMILES notation. Entries after “also recorded” stand apart in the source; their conditions may differ.

One series concerns the target T1, hAChE (Homo sapiens, UniProt P22303).
T1 construct: purchased Sigma Aldrich
Briefly: Inhibition of hAChE (Ellman spectrophotometric assay). It counts as biochemical. Conditions: for hAChE % @ 10 µM: inhibition at 10 µM; for IC50: seven concentrations 30–0.01 µM. The protocol: (§1) Inhibition assays were performed according to previously published protocols. […] Compound 3 is a hydroxamate in which the piperidine ring is attached to the C4 oxygen via an n-butyl linker, while compound 6 is a corresponding N-propargylhydroxamate.
(§2) Inhibition assays were performed according to previously published protocols. […] Briefly, the classical Ellman spectrophotometric assay (for ChEs) and fluorimetric detection of 4-hydroxyquinoline (for MAOs) were adapted to a plate reading procedure using 96-well microtiter plates (Greiner Bio-Frickenhausen, Frickenhausen, Germany). Readings were performed using the Infinite M1000 Pro plate reader (Tecan, Cernusco s.N., Cernusco sul Naviglio, MI, Italy), and statistical regression was performed using Prism software (GraphPad Prism version 5.00 for Windows, GraphPad Software, San Diego, CA, USA).
(In Ellman's method for cholinesterases, released thiocholine reacts with DTNB.)

The target in a further series is T2, hBChE (Homo sapiens, UniProt P06276).
T2 construct: purchased Sigma Aldrich
Description: Inhibition of hBChE (Ellman spectrophotometric assay). Conditions: ni = no inhibition; for hBChE % @ 10 µM: inhibition at 10 µM. The series is classed as biochemical. As to the method: as §1, §2

The target of another series is T3, hMAO-A (Homo sapiens, UniProt P21397).
T3 construct: purchased Sigma Aldrich
T3 sequence (P21397 1-527): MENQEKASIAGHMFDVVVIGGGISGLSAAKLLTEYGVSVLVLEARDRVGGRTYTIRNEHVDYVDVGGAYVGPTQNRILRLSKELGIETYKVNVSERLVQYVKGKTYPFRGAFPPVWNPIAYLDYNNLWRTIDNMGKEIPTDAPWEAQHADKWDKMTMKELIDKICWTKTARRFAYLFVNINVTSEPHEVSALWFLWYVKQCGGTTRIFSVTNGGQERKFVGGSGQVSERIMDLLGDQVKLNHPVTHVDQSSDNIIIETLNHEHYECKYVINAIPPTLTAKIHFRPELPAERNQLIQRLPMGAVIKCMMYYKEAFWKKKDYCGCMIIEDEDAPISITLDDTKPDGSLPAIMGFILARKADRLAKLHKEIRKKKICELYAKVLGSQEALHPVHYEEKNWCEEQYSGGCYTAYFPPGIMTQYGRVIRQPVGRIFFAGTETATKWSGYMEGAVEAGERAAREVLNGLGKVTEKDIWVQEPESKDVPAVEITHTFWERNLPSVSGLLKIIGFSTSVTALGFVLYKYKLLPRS
Briefly: Inhibition of hMAO-A (fluorimetric detection of 4-hydroxyquinoline). The series is classed as biochemical. Conditions: ni = no inhibition. As to the method: as §1, §2

A further series has as its target T4, hMAO-B (Homo sapiens, UniProt P27338).
T4 construct: purchased Sigma Aldrich
T4 sequence (P27338 1-520): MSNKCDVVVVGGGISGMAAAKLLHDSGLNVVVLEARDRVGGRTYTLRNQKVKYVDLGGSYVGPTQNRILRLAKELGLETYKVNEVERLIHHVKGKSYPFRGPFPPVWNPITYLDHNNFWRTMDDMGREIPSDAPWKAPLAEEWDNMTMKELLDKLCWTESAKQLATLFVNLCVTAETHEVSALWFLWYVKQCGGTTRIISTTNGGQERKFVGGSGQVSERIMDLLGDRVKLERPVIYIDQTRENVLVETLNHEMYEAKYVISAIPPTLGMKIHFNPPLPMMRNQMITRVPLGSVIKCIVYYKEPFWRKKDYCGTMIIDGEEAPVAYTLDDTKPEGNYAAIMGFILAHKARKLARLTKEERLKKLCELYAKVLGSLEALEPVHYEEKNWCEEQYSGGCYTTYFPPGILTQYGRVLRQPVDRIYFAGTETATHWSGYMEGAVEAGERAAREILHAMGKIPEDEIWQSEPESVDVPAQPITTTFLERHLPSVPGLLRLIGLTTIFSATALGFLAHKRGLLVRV
Description: Inhibition of hMAO-B (fluorimetric detection of 4-hydroxyquinoline). The series is classed as biochemical. To be noted: ni = no inhibition. The protocol:
as §1, §2

Series [1] is described as follows: DPPH radical-scavenging assay. Conditions: DPPH 70 µM in MeOH, 1.5 h incubation. The text has this:
In addition, antioxidants or natural products containing polyphenols are also being investigated in clinical trials involving AD patients. Therefore, the antioxidant properties of compound 4 were investigated using the 2,2-diphenyl-1-picrylhydrazyl radical (DPPH) scavenging assay, a simple and reliable in vitro assay. […] Hydroxamic acids are considered to be potent antioxidants, and, in combination with cholinesterase inhibitory activity, could not only alleviate symptoms but also have disease-modifying effects.
Compound 4 at concentrations of 3.125–50 µM was incubated for 1.5 h with 2,2-diphenyl-1-picrylhydrazyl radical (DPPH, 70 µM) in MeOH, and absorbance was measured (λ = 517 nm) using a Synergy™ H4 reader (BioTek Instruments, Inc., Winooski, VT, USA). The experiment was performed in three technical replicates, and the blank sample (compound 4 without DPPH) was subtracted. The results are expressed as the percentage of DPPH free radicals (DPPH free radicals (%) = ((A0 − A1)/A0) × 100, where A0 is the absorbance of DPPH in MeOH and A1 is the absorbance of DPPH in the presence of compound 4).
In general terms: The DPPH test is a chemical assay of radical scavenging.

Series [2] can be described thus: Metal chelation, UV-Vis absorption assay, Cu2+. Conditions: 30 µM compound, equimolar CuCl2, 30 min, pH 7.4. It counts as physicochemical. The protocol: (§3) Another therapeutic possibility currently under investigation is metal chelation, which could affect not only the redox cycling of metal ions but also Aβ- and tau-pathology. Metal chelation of compound 4 was investigated using a UV-Vis absorption assay, in which the compound was incubated with equimolar concentrations of the major bivalent biometals (i.e., Ca^2+, Mg^2+, Zn^2+, Cu^2+, Fe^2+, Mn^2+, Co^2+, and Ni^2+) (Figure 4).
(§4) Metal chelation was determined in assay buffer (20 mM Na-HEPES, 150 mM NaCl, pH 7.4) according to the procedure described previously. Stock solutions of the metals at 100 mM concentrations were prepared in MilliQ water (Milli-Q advantage A10 Ultrapure Water Purification System, Millipore, KGaA, Darmstadt, Germany). The FeCl2 stock solution (100 mM) was prepared in the presence of ascorbic acid (1 mM). Compound 4 at a concentration of 30 μM was incubated for 30 min with equimolar concentrations of CuCl2, ZnCl2, MgCl2, CaCl2, MnCl2, FeCl2, CoCl2, and NiCl2. Absorbance spectra were measured on a Synergy™ H4 reader (BioTek Instruments, Inc., Winooski, VT, USA).

Series [3] in a line: Metal chelation, UV-Vis absorption assay, Fe2+. It counts as physicochemical. To be noted: 30 µM compound, equimolar FeCl2, 30 min, pH 7.4. As to the method: as §3, §4
Series [4] can be described thus: Metal chelation, UV-Vis absorption assay, Ca2+. The series is classed as physicochemical. Conditions: 30 µM compound, equimolar CaCl2, 30 min, pH 7.4. As to the method: as §3, §4

T1 sequence (P22303 32-614): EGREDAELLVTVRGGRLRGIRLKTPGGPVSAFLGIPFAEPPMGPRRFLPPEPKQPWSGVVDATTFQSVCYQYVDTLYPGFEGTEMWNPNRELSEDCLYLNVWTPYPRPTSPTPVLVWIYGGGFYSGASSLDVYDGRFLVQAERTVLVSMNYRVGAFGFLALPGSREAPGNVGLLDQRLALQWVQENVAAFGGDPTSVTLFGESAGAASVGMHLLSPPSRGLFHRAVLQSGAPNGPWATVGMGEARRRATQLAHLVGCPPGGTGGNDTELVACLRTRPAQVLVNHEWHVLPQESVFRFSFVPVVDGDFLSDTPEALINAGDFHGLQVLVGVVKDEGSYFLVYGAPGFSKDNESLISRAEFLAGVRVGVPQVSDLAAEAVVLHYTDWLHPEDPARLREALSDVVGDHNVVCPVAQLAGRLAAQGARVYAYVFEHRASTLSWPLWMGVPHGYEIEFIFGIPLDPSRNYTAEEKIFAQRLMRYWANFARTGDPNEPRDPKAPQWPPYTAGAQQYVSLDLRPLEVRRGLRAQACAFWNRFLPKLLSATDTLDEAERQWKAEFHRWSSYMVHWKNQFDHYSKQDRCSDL
T2 sequence (P06276 29-602): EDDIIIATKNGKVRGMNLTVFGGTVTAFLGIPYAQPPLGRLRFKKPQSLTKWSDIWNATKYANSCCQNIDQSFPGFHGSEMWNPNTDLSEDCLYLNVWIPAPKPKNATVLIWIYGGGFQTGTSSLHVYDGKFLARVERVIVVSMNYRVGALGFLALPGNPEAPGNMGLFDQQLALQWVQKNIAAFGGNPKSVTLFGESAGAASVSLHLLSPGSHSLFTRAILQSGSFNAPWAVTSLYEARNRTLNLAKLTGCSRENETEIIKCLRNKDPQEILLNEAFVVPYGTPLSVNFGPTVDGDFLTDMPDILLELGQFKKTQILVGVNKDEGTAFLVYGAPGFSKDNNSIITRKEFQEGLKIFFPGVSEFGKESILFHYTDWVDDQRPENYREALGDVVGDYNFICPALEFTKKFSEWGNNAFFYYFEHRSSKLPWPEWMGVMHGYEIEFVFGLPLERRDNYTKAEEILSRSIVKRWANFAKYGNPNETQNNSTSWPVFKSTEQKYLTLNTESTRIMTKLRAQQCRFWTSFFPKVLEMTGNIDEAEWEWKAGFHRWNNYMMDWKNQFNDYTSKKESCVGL

Broadly, the inhibition is the percentage by which the read-out fell short of the control. Higher therefore signals a strong effect. Consider `COc1cc(/C=C/C(=O)NO)ccc1OCCN1CCCCC1` [Compound 1, (E)-N-Hydroxy-3-(3-methoxy-4-(2-(piperidin-1-yl)ethoxy)phenyl)acrylamide], for which, on hAChE, the “hAChE % @ 10 µM” value was 51 ± 2%. In addition, the inhibition at 10 µM at hBChE was 18 ± 4%; against hMAO-A, 20 ± 5%; against hMAO-B it was 26 ± 5%.
With `COc1cc(/C=C/C(=O)NO)ccc1OCCCN1CCCCC1` [Compound 2, (E)-N-Hydroxy-3-(3-methoxy-4-(3-(piperidin-1-yl)propoxy)phenyl)acrylamide], the “hAChE % @ 10 µM” value on hAChE was determined as 42 ± 2%. Further, on hBChE, the “hBChE % @ 10 µM” value was “ni”. The inhibition at 10 µM came out at 15 ± 5% against hMAO-A and 21 ± 4% at hMAO-B.
The term IC50 denotes the concentration at which inhibition is half-maximal. Read a low IC50 as inhibition by little substance. `COc1cc(/C=C/C(=O)NO)ccc1OCCCCN1CCCCC1` [Compound 3, (E)-N-Hydroxy-3-(3-methoxy-4-(4-(piperidin-1-yl)butoxy)phenyl)acrylamide] showed an IC50 against hAChE of 6.58 ± 0.27 µM. The “hBChE % @ 10 µM” value on hBChE is recorded as “ni”. Besides, the inhibition at 10 µM against hMAO-A was 5 ± 3%; against hMAO-B, 11 ± 4%.
For orientation: EC50 means the concentration giving half of the maximal effect. `C#CCN(O)C(=O)/C=C/c1ccc(OCCN2CCCCC2)c(OC)c1` [Compound 4, (E)-N-Hydroxy-3-(3-methoxy-4-(2-(piperidin-1-yl)ethoxy)phenyl)-N-(prop-2-yn-1-yl)acrylamide] gave an IC50 against hAChE of 2.63 ± 0.57 µM. Moreover, the inhibition at 10 µM on hBChE is 38 ± 2%; at hMAO-A, 26 ± 5%; against hMAO-B it was 20 ± 4%. For the same compound, in series [1], the EC50 was 40.9 ± 0.5 µM. Besides, the “Cu^2+ chelation (spectral change)” value in series [2] is recorded as “efficiently bound Cu^2+ ions; also recorded: chelated divalent copper ions”. Besides, the “Fe^2+ chelation (spectral change)” value in series [3] is “ferrous ions were also bound”. Further, in series [4], the “Ca^2+ chelation (spectral change)” value is listed as “does not appear to be due to the formation of a Ca^2+/4 complex”.
As for `C#CCN(O)C(=O)/C=C/c1ccc(OCCCN2CCCCC2)c(OC)c1` [Compound 5, (E)-N-Hydroxy-3-(3-methoxy-4-(3-(piperidin-1-yl)propoxy)phenyl)-N-(prop-2-yn-1-yl)acrylamide], the “hAChE % @ 10 µM” value at hAChE came to 41 ± 4%. In addition, the “hBChE % @ 10 µM” value at hBChE is “ni”. Also, the inhibition at 10 µM turned out to be 23 ± 6% against hMAO-A and 16 ± 5% on hMAO-B.
On hAChE, `C#CCN(O)C(=O)/C=C/c1ccc(OCCCCN2CCCCC2)c(OC)c1` [Compound 6, (E)-N-Hydroxy-3-(3-methoxy-4-(4-(piperidin-1-yl)butoxy)phenyl)-N-(prop-2-yn-1-yl)acrylamide] returned an IC50 of 7.2 ± 0.54 µM. On hBChE, the “hBChE % @ 10 µM” value is listed as “ni”. For the same compound, on hMAO-A (inhibition at 10 µM), the “hMAO-A % @ 10 µM” value is given as “ni”. The “hMAO-B % @ 10 µM” value on hMAO-B (inhibition at 10 µM) was “ni”.
Regarding `O=C(NO)c1ccccc1` [Compound 15, N-Hydroxybenzamide], at hAChE, the “hAChE % @ 10 µM” value is 58 ± 5%. On hBChE, the “hBChE % @ 10 µM” value was “ni”. Moreover, the values for the inhibition at 10 µM at hMAO-A and against hMAO-B were 11 ± 3% and 16 ± 3%, respectively.
In the same order, the values of `C#CCN(O)C(=O)c1ccccc1` [Compound 16, N-Hydroxy-N-(prop-2-yn-1-yl)benzamide] are 40 ± 4%, “ni”, 14 ± 4% and 16 ± 5%.
Consider `Cc1c(C)c2c(c(C)c1O)CCC(C)(C(=O)O)O2` (stereo not shown) [Trolox, reference compound], for which the EC50 in series [1] was found to be 12.4 ± 0.3 µM.
